{
  "source": "EPA's ToxValDB 9.5 (doi:10.2903/j.efsa.2009.297r)",
  "key": {"Tagia sp.": {"tested_on": "Tagia sp.", "details": "mortality"}, "[1]": {"details": "reproductive"}, "Salmo trutta ssp. fario": {"tested_on": "Salmo trutta ssp. fario", "details": "acute; duration: 96 hours; mortality"}, "Canidae": {"tested_on": "Canidae", "details": "chronic; duration: 1 years; oral; Dog Other; body weight"}, "Apis mellifera": {"tested_on": "Apis mellifera", "details": "acute; dermal; mortality"}, "Rattus norvegicus": {"tested_on": "Rattus norvegicus", "details": "oral"}, "Adalia sp.": {"tested_on": "Adalia sp.", "details": "not reported; reproduction"}, "Oncorhynchus mykiss": {"tested_on": "Oncorhynchus mykiss", "details": "chronic/long-term; duration: 28 days"}, "Oryctolagus sp.": {"tested_on": "Oryctolagus sp.", "details": "developmental; development"}},
  "note": "Several values for one entry are separate records, joined by “and”; a condition that tells them apart may be missing. Equal entries are not always repeated.",
  "data": [
    {"smiles": "O=C1c2ccccc2C(=O)N1SC(Cl)(Cl)Cl", "note": "[Folpet]", "values": [
      {"measurement": "LC50", "setting": "Tagia sp.; acute, duration: 14 days", "value": "> 1000", "unit": "mg/kg"},
      {"measurement": "NOEC", "setting": "Tagia sp.; chronic/long-term", "value": 5.18, "unit": "mg/kg"},
      {"measurement": "NOEC", "setting": "[1]", "value": 1500, "unit": "mg/kg"},
      {"measurement": "LC50", "setting": "Salmo trutta ssp. fario", "value": 0.098, "unit": "mg/L"},
      {"measurement": "NOAEL", "setting": "Canidae", "value": 10, "unit": "mg/kg-day"},
      {"measurement": "LC50", "setting": "Coturnix coturnix; acute, oral, diet, mortality", "value": "> 1130", "unit": "mg/kg-day"},
      {"measurement": "LD50", "setting": "Coturnix coturnix; acute, oral, mortality", "value": "> 2510", "unit": "mg/kg"},
      {"measurement": "NOEC", "setting": "Coturnix coturnix; reproduction developmental, reproduction", "value": 78.3, "unit": "mg/kg-day"},
      {"measurement": "LD50", "setting": "Apis mellifera", "value": "> 200", "unit": "µg/piece"},
      {"measurement": "LD50", "setting": "Rattus norvegicus; acute, mortality", "value": "> 2000", "unit": "mg/kg"},
      {"measurement": "NOAEL", "setting": "Rattus norvegicus; chronic, duration: 2 years, diet, body weight", "value": 10, "unit": "mg/kg-day"},
      {"measurement": "LEL", "setting": "Adalia sp.", "value": 530, "unit": "g/ha"},
      {"measurement": "LC50", "setting": "Oncorhynchus mykiss", "value": 0.11, "unit": "mg/L"},
      {"measurement": "NOEC", "setting": "Anas platyrhynchos; reproductive", "value": 90, "unit": "mg/kg-day"},
      {"measurement": "LC50", "setting": "Anas platyrhynchos; short-term, oral, feed, mortality", "value": "> 746", "unit": "mg/kg-day"},
      {"measurement": "NOAEL", "setting": "Oryctolagus sp.", "value": "10 mg/kg-day and 20 mg/kg-day"}
    ]}
  ]
}
